These results are taken from publication PMC10482913, “A new class of anticancer activity with computational studies for a novel bioactive aminophosphonates based on pyrazole moiety” (Scientific Reports, 2023).

Data set [1] relates to Colorectal carcinoma Colon cancer (HCT-116). Kind of data set: cells. The class given is cell-based, human. The conditions noted are these: for IC50: Homo sapiens; for relative activity for colon carcinoma cells (HCT-116), in words: among all compounds. An excerpt:
(§1) Finally, all the studied phosphonate compounds have moderate to weak cytotoxicity activity on the normal cell WI-38.
(§2) The in vitro antitumor activity of the compounds under study in this research was investigated cell growth using the MTT assay, [31]. The human tumor cell lines that used to evaluate the activity are Human lung fibroblast (WI38), Colorectal carcinoma Colon cancer (HCT-116) and Epdermoid Carcinoma (HEP2). The MTT assay is a standard colorimetric assay that is used to measure cell growth. It is used to determine cytotoxicity of potential medicinal agents and other toxic materials. Detailed procedures for the MTT assay method is presented in the supporting information (Sect. S2). […]
(§3) Cytotoxicity Assay (Section S2)
(§4) The cell lines Human lung fibroblast (WI38), Colorectal carcinoma Colon cancer (HCT-116) and Epdermoid Carcinoma (HEP2) were used to determine the inhibitory effects of compounds on cell growth using the MTT assay. This colorimetric assay is based on the conversion of the yellow tetrazolium bromide (MTT) to a purple formazan derivative by mitochondrial succinate dehydrogenase in viable cells. Cell lines were cultured in RPMI-1640 medium with 10% fetal bovine serum. Antibiotics added were 100 units/ml penicillin and 100µg/ml streptomycin at 37 C in a 5% Co2 incubator. The cell lines were seedes in a 96-well plate at a density of 1.0x10^4 cells/well.
(§5) At 37 C for 48 h under 5% CO2. After incubation the cells were treated with different concentration of compounds and incubated for 24 h. After 24 h of drug treatment, 20 µl of MTT solution at […]
(§6) 5mg/ml was added and incubated for 4 h. Dimethyl sulfoxide (DMSO) in volume of 100 µl is added into each well to dissolve the purple formazan formed. The colorimetric assay is measured and recorded at absorbance of 570 nm using a plate reader (EXL 800, USA). The relative cell viability in percentage was calculated as (A570 of treated samples/A570 of untreated sample) X 100.

Data set [2] concerns Human lung fibroblast normal cell line (WI38). Kind of data set: cells. The class given is cell-based.
Excerpt: as §1, §2, §3, §4, §5, §6

The test system of data set [3] is Epdermoid Carcinoma (HEP2). It is filed as cell-based, human. The conditions noted are these: among all compounds.
Excerpt: as §2, §3
The cell lines Human lung fibroblast (WI38), Colorectal carcinoma Colon cancer (HCT-116) and Epdermoid Carcinoma (HEP2) were used to determine the inhibitory effects of compounds on cell growth using the MTT assay. This colorimetric assay is based on the conversion of the yellow tetrazolium bromide (MTT) to a purple formazan derivative by mitochondrial succinate dehydrogenase in viable cells. Cell lines were cultured in RPMI-1640 medium with 10% fetal bovine serum. […]
5mg/ml was added and incubated for 4 h. […] The colorimetric assay is measured and recorded at absorbance of 570 nm using a plate reader (EXL 800, USA). The relative cell viability in percentage was calculated as (A570 of treated samples/A570 of untreated sample) X 100.

Setting [4] is: HCT-116, Figure 4, unit inferred, read-out: IC50 against colon carcinoma cells (HCT-116).
Where [5] appears, read: WI-38, Figure 6, unit inferred, read-out: IC50 against normal cell line (WI38).
Setting [6] is: HCT-116, read-out: IC50 against colon carcinoma cells (HCT-116).
Where [7] appears, read: WI-38, read-out: IC50 against normal cell line (WI38).

Each structure is given as a SMILES string. Like-named read-outs stand apart in the source and are kept apart here.

On to `CCOP(=O)(OCC)C(Nc1cc(-c2ccc([N+](=O)[O-])cc2)nn1-c1ccccc1)c1cccc(O)c1` (stereo not drawn) [Compound 2b, Diethyl{(3-(4-nitrophenyl)-1-phenyl-1H-pyrazol-5-ylamino)(3-hydroxyphenyl)}methylphosphonate], for which the melting point (as a rule, the temperature of the solid-liquid transition) fell in the range of 252 to 254 °C. The IC50 (commonly the concentration that inhibits the measured activity by half) in data set [1] (setting [4]) was 84.5 µM. Further, the IC50 in data set [2] (setting [5]) amounted to 55.7 µM.

`CCOP(=O)(OCC)C(Nc1cc(-c2ccc([N+](=O)[O-])cc2)nn1-c1ccccc1)c1cccc(Cl)c1` (stereo not drawn) [Compound 2c, Diethyl{(3-(4-nitrophenyl)-1-phenyl-1H-pyrazol-5-ylamino)(3-chlorophenyl)}methylphosphonate]: the melting point lay in the range of 150 to 152 °C. Besides, the IC50 in data set [1] (setting [4]) was 45.7 µM. Also, the IC50 in data set [2] (setting [5]) was determined as 29.7 µM.

In turn, `CCOP(=O)(OCC)C(Nc1cc(-c2ccc([N+](=O)[O-])cc2)nn1-c1ccccc1)c1ccc([N+](=O)[O-])cc1` (stereo not drawn) [Compound 2d, Diethyl{(3-(4-nitrophenyl)-1-phenyl-1H-pyrazol-5-ylamino)(4-nitrophenyl)}methylphosphonate] showed a melting point of 234 to 235 °C. Moreover, the IC50 in data set [1] (setting [4]) was 19.9 µM. The “relative activity for colon carcinoma cells (HCT-116), in words” value in data set [1] is on record as “strongest activity”. The half-inhibitory concentration (IC50) in data set [2] (setting [5]) is 41.9 µM.

The compound `CCOP(=O)(OCC)C(Nc1cc(-c2ccc([N+](=O)[O-])cc2)nn1-c1ccccc1)c1ccc(Cl)cc1` (stereo not drawn) [Compound 2e, Diethyl{(3-(4-nitrophenyl)-1-phenyl-1H-pyrazol-5-ylamino)(4-chlorophenyl)}methylphosphonate] yielded a melting point of 298 to 300 °C. The IC50 in data set [1] (setting [4]) was determined as 57.3 µM. For the same compound, the IC50 in data set [2] (setting [5]) was 86.3 µM.

As for `CCOP(=O)(OCC)C(Nc1cc(-c2ccccc2)nn1-c1ccc([N+](=O)[O-])cc1[N+](=O)[O-])c1ccc(N(C)C)cc1` (stereo not drawn) [Compound 2f, Diethyl{(1-(2,4-dinitrophenyl)-3-phenyl-1H-pyrazol-5-ylamino)(4-N,Ndimethylaminophenyl)} methyl phosphonate], the melting point lay in the range of 244 to 246 °C. In addition, in data set [1] (setting [4]), the 50% inhibitory concentration (IC50) came out at 37.8 µM. Also, the half-inhibitory concentration (IC50) in data set [2] (setting [5]) turned out to be 65.1 µM.

Turning to `O=[N+]([O-])c1ccc(-c2cc(NC(c3cccc(O)c3)P(=O)(Oc3ccccc3)Oc3ccccc3)n(-c3ccccc3)n2)cc1` (stereo not drawn) [Compound 4a, Diphenyl{(3-(4-nitrophenyl)-1-phenyl-1H-pyrazol-5-ylamino)(3-hydroxyphenyl)}methylphosphonate], the melting point was in the range of 266 to 268 °C. Also, the IC50 in data set [1] (setting [6]) was 73.2 µM. Further, the IC50 in data set [2] (setting [7]) is 47.1 µM.

Compound `O=[N+]([O-])c1ccc(-c2cc(NC(c3ccc([N+](=O)[O-])cc3)P(=O)(Oc3ccccc3)Oc3ccccc3)n(-c3ccccc3)n2)cc1` (stereo not drawn) [Compound 4b, Diphenyl{(3-(4-nitrophenyl)-1-phenyl-1H-pyrazol-5-ylamino)(4-nitrophenyl)}methylphosphonate] displayed a melting point of 167 to 168 °C. Moreover, the IC50 in data set [1] (setting [6]) was 15.1 µM. Also, the “relative activity for colon carcinoma cells (HCT-116), in words” value in data set [1] is on record as “strongest activity”. Moreover, the “relative activity for Epdermoid Carcinoma (HEP2), in words” value in data set [3] was “highest activity”. The IC50 in data set [2] (setting [7]) turned out to be 62.8 µM.

As for `O=[N+]([O-])c1cccc(C(Nc2cc(-c3ccccc3)nn2-c2ccc([N+](=O)[O-])cc2[N+](=O)[O-])P(=O)(Oc2ccccc2)Oc2ccccc2)c1` (stereo not drawn) [Compound 4c, Diphenyl{(1-(2,4-dinitrophenyl)-3-phenyl-1H-pyrazol-5-ylamino)(3-nitrophenyl)}methyl phosphonate], the values for the IC50 in data set [1] (setting [6]) and in data set [2] (setting [7]) were 51.3 µM and more than 100 µM, respectively.

`CN(C)c1ccc(C(Nc2cc(-c3ccccc3)nn2-c2ccc([N+](=O)[O-])cc2[N+](=O)[O-])P(=O)(Oc2ccccc2)Oc2ccccc2)cc1` (stereo not drawn) [Compound 4d, Diphenyl{(1-(2,4-dinitrophenyl)-3-phenyl-1H-pyrazol-5-ylamino)(4-N,N-dimethylaminophenyl)} methyl phosphonate] returned a melting point of 212 to 214 °C. Also, the IC50 in data set [1] (setting [6]) worked out at 26.1 µM. In addition, the “relative activity for Epdermoid Carcinoma (HEP2), in words” value in data set [3] was “highest activity”. The IC50 in data set [2] (setting [7]) is 78.3 µM.
